The values below come from patent publication US7572606B1 (Nereus Pharmaceuticals, Inc., priority 2005, dated 2009).

Assay [1] concerns the target T1, trypsin-like activity of rabbit muscle 20S proteasome (Oryctolagus cuniculus, UniProt G1SWK8).
T1 construct: EC50 Trypsin-like; other: purified rabbit 20S proteasome, Boc-LRR-AMC; other: under the conditions tested
T1 sequence (G1SWK8 1-271): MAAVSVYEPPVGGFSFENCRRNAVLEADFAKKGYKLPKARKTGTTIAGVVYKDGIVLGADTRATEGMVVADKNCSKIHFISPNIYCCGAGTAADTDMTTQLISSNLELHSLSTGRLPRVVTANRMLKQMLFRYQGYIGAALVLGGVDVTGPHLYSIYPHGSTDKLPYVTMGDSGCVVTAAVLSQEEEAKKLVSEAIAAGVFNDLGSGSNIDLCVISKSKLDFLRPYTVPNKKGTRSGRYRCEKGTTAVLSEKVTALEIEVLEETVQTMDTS
In words: In vitro inhibition of 20S proteasome, Boc-LRR-AMC. Type of assay: biochemical. As to conditions: under the conditions tested.

Assay [2] deals with caspase-like (PGPH) activity of rabbit muscle 20S proteasome (Oryctolagus cuniculus, UniProt A0A5F9DQW2). The assay can be described thus: In vitro inhibition of 20S proteasome, Z-LLE-AMC. As to conditions: purified rabbit 20S proteasome, Z-LLE-AMC.
caspase-like (PGPH) activity of rabbit muscle 20S proteasome, sequence (A0A5F9DQW2 1-212): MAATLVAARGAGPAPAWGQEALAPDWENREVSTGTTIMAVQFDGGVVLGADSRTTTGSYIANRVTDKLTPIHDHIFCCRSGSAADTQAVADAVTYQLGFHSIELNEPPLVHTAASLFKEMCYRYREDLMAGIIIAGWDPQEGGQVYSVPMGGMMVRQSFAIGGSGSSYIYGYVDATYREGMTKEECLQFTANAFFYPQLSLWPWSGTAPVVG
For assay [3], the system named is NF-κB-mediated luciferase activity in HEK293 NF-κB/Luc cells. In words: NF-κB-mediated luciferase reporter gene assay. Type of assay: cell-based, human. To be noted: for luciferase activity upon TNF-α stimulation: pretreatment of NF-κB/Luc 293 cells; for pEC50: Homo sapiens, HEK293, 1 h pretreatment, 6 h TNF-α stimulation, read-out: EC50. The procedure:
The HEK293 NF-κB/luciferase reporter cell line is a derivative of the human embryonic kidney cell line (ATCC; CRL-1573) and carries a luciferase reporter gene under the regulation of 5×NF-κB binding sites. […] When performing the luciferase assay, the DMEM basal medium was replaced with phenol-red free DMEM basal medium and the G418 was omitted.
For NF-κB-mediated luciferase assays, HEK293 NF-κB/luciferase cells were seeded at 1.5×10^4 cells/well in 90 μl phenol-red free DMEM complete medium into Corning 3917 white opaque-bottom tissue culture plates. For Formulae II-2, II-4, II-5A and II-18, a 400 μM starting dilution was made in 100% DMSO and this dilution was used to generate an 8-point half log dilution series. […] For formula II-20, a 2.5 mM or 8 mM starting dilution was made in 100% DMSO and the final test concentrations ranged from 6.3 μM to 2.0 nM or 20 μM to 6.3 nM respectively. The plates were returned to the incubator for 1 hour. After 1 hr pretreatment, 10 μl of a 50 ng/ml TNF-α solution, prepared in the phenol-red free DMEM medium was added, and the plates were incubated for an additional 6 hours.
At the end of the TNF-α stimulation, 100 μl of Steady Lite HTS luciferase reagent (Packard Bioscience) was added to each well and the plates were left undisturbed for 10 min at room temperature before measuring the luciferase activity. The relative luciferase units (RLU) were measured by using a Fusion microplate fluorometer (Packard Bioscience).
NF-κB inducible luciferase activity was measured at 6 hours.

The target in assay [4] is T2, chymotrypsin-like activity of rabbit muscle 20S proteasome (Oryctolagus cuniculus, UniProt G1T4Q9).
T2 sequence (G1T4Q9 1-263): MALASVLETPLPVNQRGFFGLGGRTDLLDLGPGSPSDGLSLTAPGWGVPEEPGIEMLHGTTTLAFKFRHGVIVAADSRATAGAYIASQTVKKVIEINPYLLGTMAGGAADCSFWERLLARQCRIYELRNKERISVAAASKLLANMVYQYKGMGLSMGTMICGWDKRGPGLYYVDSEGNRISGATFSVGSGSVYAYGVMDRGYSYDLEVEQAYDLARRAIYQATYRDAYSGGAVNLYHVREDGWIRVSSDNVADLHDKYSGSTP
In words: In vitro inhibition of 20S proteasome, suc-LLVY-AMC.

Another assay relates to RPMI 8226. In words: Cell growth inhibition, resazurin, 48 h. To be noted: Homo sapiens, RPMI-8226, 48 h, RPMI 8226, 48 h drug exposure. The procedure:
RPMI 8226 (CCL-155), HT-29 (HTB-38), and B16-F10 (CRL-6475) cells were purchased from ATCC. RPMI 8226 cells were maintained in RPMI 1640 media supplemented with 10% (v/v) FBS, 2 mM L-glutamine, 1 mM sodium pyruvate and Penicillin/Streptomycin at 100 IU/ml and 100 μg/ml, respectively. HT-29 cells were maintained in McCoys 5A supplemented with 10% (v/v) FBS, 2 mM L-glutamine, 1 mM sodium pyruvate, 1% (v/v) non-essential amino acids, 10 mM HEPES and Penicillin/Streptomycin at 100 IU/ml and 100 μg/ml, respectively. B16-F10 cells were maintained in DMEM supplemented with 10% (v/v) FBS, 2 mM L-glutamine, 10 mM HEPES and Penicillin/Streptomycin at 100 IU/ml and 100 μg/ml, respectively.
RPMI 8226 cells were seeded at 2×10^4 cells/well in 90 μl RPMI media containing 10% (v/v) FBS or 1% (v/v) FBS into 96 well black-walled, clear-bottom tissue culture plates. […] Formulae II-16, II-17 and Formula II-18 were serially diluted in media containing 1% or 10% FBS and added in triplicate to the test wells. […] The final concentration of Formula II-18 ranged from 2 μM to 630 pM.

The next assay deals with U266. In words: Cell growth inhibition, resazurin, 48 h. Type of assay: cell-based, human. As to conditions: U266, 48 h drug exposure.
Assay [5] deals with 20S proteasome chymotrypsin-like activity in RPMI 8226 cells. In words: Chymotrypsin-like activity of 20S proteasomes in treated cells. To be noted: 1 hr, mean ± SD, n = 3. Type of assay: cell-based, human. The procedure:
RPMI 8226 (ATCC, CCL-155), the human multiple myeloma cell line, was cultured in RPMI 1640 medium supplemented with 2 mM L-glutamine, 100 units/ml penicillin, 100 μg/ml streptomycin, 1 mM sodium pyruvate and 10% heat inactivated fetal bovine serum at 37° C., 5% CO2 and 95% humidified air. […] DMSO was used as the vehicle control at a final concentration of 0.1%. Following 1 hr incubation of RMPI 8226 cells with the compounds, the cells were pelleted by centrifugation at 2,000 rpm for 10 sec at room temperature and washed 3× with ice-cold 1×Dulbecco's Phosphate-Buffered Saline (DPBS, Mediatech, Herndon, Va.). DPBS washed cells were lysed on ice for 15 min in lysis buffer (20 mM HEPES, 0.5 mM EDTA, 0.05% Triton X-100, pH 7.3) supplemented with protease inhibitor cocktail (Roche Diagnostics, Indianapolis, Ind.). Cell debris was pelleted by centrifugation at 14,000 rpm for 10 min, 4° C. and supernatants (=cell lysates) were transferred to a new tube. Protein concentration was determined by the BCA protein assay kit (Pierce Biotechnology, Rockford, Ill.). […] The total amount of protein used for each assay was 20 μg. The final concentration of Suc-LLVY-AMC and DMSO was 20 μM and 0.2%, respectively.

Setting [6] is: read-out: EC50 Caspase-like (PGPH).

pEC50: −log10 of the molar value. Several values for one entry are separate records, joined by “and”; a condition that tells them apart may be missing. Identical values can stand only once. Like-named read-outs stand apart in the source and are kept apart here.

With `CC12OC(=O)C1(C(=O)C1C=CCCC1)NC(=O)C2CCCl` (stereo not drawn) [Formula II-13C], the “inhibition of the trypsin-like activity of the 20S proteasome” value (from here on “inhibition … of the 20S proteasome”) in assay [1] is listed as “able to inhibit the trypsin-like activity”. The pEC50 in assay [2] (read-out: EC50 Caspase-like) was below 4.70.
As to `C[C@@]12OC(=O)[C@]1([C@@H](O)[C@@H]1C=CCCC1)NC(=O)[C@@H]2CCO` [Formula II-21], the “inhibition … of the 20S proteasome” value in assay [1] is “able to inhibit the trypsin-like activity”. For the same compound, the negative-log EC50 (pEC50) is 5.59 and 5.63 in assay [2] (setting [6]); 5.64 in assay [2] (read-out: EC50 Caspase-like). Besides, in assay [3], the “luciferase activity upon TNF-α stimulation” value was “dose-dependent decrease of luciferase activity”.
As to `CCC(=O)OCC[C@H]1C(=O)N[C@@]2([C@@H](O)[C@@H]3C=CCCC3)C(=O)O[C@@]12C` [Formula II-22], the “inhibition … of the 20S proteasome” value in assay [1] was “able to inhibit the trypsin-like activity”. In addition, the negative logarithm of the EC50 (pEC50) in assay [2] (read-out: EC50 Caspase-like) was 5.85. In assay [3], the “luciferase activity upon TNF-α stimulation” value was “dose-dependent decrease of luciferase activity”.
As for `CC[C@@]12OC(=O)[C@]1([C@@H](O)[C@@H]1C=CCCC1)NC(=O)[C@@H]2CCCl` [Formula II-24C], the “inhibition … of the 20S proteasome” value in assay [1] is reported as “able to inhibit the trypsin-like activity”. The pEC50 was 5.66 in assay [4] (read-out: EC50 Chymotrypsin-like, purified rabbit 20S proteasome, suc-LLVY-AMC) and below 4.70 in assay [2] (read-out: EC50 Caspase-like). Further, the “luciferase activity upon TNF-α stimulation” value in assay [3] was “dose-dependent decrease of luciferase activity”.
`C[C@@]12OC(=O)[C@]1([C@H](O)[C@@H]1C=CCCC1)NC(=O)[C@@H]2CCCl` [Formula II-25]: the pEC50 is below 4.70 in the assay on RPMI 8226; below 4.70 in the assay with U266 (Homo sapiens, U-266, 48 h); below 4.70 in assay [3].
With `C[C@@]12OC(=O)[C@]1([C@@H](O)[C@@H]1C=CCCC1)NC(=O)[C@H]2CCCl` [Formula II-26], the “inhibition … of the 20S proteasome” value in assay [1] is reported as “able to inhibit the trypsin-like activity”. Moreover, the “luciferase activity upon TNF-α stimulation” value in assay [3] was “dose-dependent decrease of luciferase activity”.
On to `C[C@@H]1C(=O)N[C@@]2([C@@H](O)[C@@H]3C=CCCC3)C(=O)O[C@@]12C` [Formula II-28], for which the pEC50 in assay [2] (read-out: EC50 Caspase-like) is below 4.70.
As to `C[C@@]12OC(=O)[C@]1([C@@H](O)[C@@H]1C=CCCC1)NC(=O)[C@@H]2CCN=[N+]=[N-]` [Formula II-29], the “inhibition … of the 20S proteasome” value in assay [1] is recorded as “able to inhibit the trypsin-like activity”. Besides, the pEC50 in assay [2] (setting [6]) is 6.27 and 6.28. Also, the “luciferase activity upon TNF-α stimulation” value in assay [3] is listed as “dose-dependent decrease of luciferase activity”.
For the compound `CCC[C@H]1C(=O)N[C@@]2([C@@H](O)[C@@H]3C=CCCC3)C(=O)O[C@@]12C` [Formula II-30], the “inhibition … of the 20S proteasome” value in assay [1] is given as “able to inhibit the trypsin-like activity”. Also, the values for the pEC50 in assay [2] (setting [6]) and in assay [2] (read-out: EC50 Caspase-like) were 6.02 and 5.89, respectively. For the same compound, the “luciferase activity upon TNF-α stimulation” value in assay [3] is listed as “dose-dependent decrease of luciferase activity”.
`C[C@@]12OC(=O)[C@]1(C(=O)C1=CC(O)CCC1)NC(=O)[C@]2(C)CCCl` (stereo partly drawn) [Formula II-31] showed a pEC50 in assay [4] below 4.70.
Turning to `COC(=O)CCSC(=O)[C@]1([C@@H](O)[C@@H]2C=CCCC2)NC(=O)[C@H](CCCl)[C@]1(C)O` [Formula II-44], the “inhibition … of the 20S proteasome” value in assay [1] is “able to inhibit the trypsin-like activity”. Besides, the pEC50 in assay [2] (read-out: EC50 Caspase-like) is 5.85. In assay [3], the “luciferase activity upon TNF-α stimulation” value is “dose-dependent decrease of luciferase activity”.
Take `C[C@@]12OC(=O)[C@]1([C@@H](O)[C@H]1CCC[C@H](Cl)[C@H]1O)NC(=O)[C@@H]2CCCl` [Formula IV-3C]: the negative logarithm of the EC50 (pEC50) is below 4.70 with RPMI 8226; 5.11 in the assay with U266 (Homo sapiens, U-266, 48 h, read-out: EC50); 5.08 in the assay on U266 (read-out: EC50); below 4.70 in assay [2] (read-out: EC50 Caspase-like); below 4.70 in assay [3].
For `COC(=O)CCSC(=O)C1(C(O)C2C=CCCC2)NC(=O)C2CCOC21C` (stereo not drawn) [Formula VI-1A], the “inhibition … of the 20S proteasome” value in assay [1] is given as “able to inhibit the trypsin-like activity”. Besides, the pEC50 in assay [2] (read-out: EC50 Caspase-like) was 5.10 and 5.06.
In the case of `CC(C)[C@H](O)[C@@]12NC(=O)[C@H](C)[C@@H]1OC2=O` [Omuralide, reference compound], the “% inhibition of the chymotrypsin-like activity of 20S proteasomes in RPMI 8226 cell lysates” value is 5 ± 9% in assay [5] (1 nM); 8 ± 9% in assay [5] (5 nM); 4 ± 9% in assay [5] (10 nM); 17 ± 11% in assay [5] (50 nM); 32±8% in assay [5] (100 nM); 68 ± 11% in assay [5] (500 nM). Also, the entries for the “% inhibition of the chymotrypsin-like activity of 20S proteasomes in RPMI 8226 cell lysates” value in assay [5] (1,000 nM) and in assay [5] (10,000 nM) were 80 ± 8% and 93 ± 1%, respectively.
